Source: article PMC4745082, “A Novel PET Imaging Probe for the Detection and Monitoring of Translocator Protein 18 kDa Expression in Pathological Disorders” (Scientific Reports, 2016)

Assay: Ex vivo tissue distribution in normal ICR mice
Conditions: for tissue radioactivity, Adrenal / tissue radioactivity, Blood / tissue radioactivity, Brain / tissue radioactivity, Femur / tissue radioactivity, Heart / tissue radioactivity, Kidney / tissue radioactivity, L. Intestine / tissue radioactivity, Liver / tissue radioactivity, Lung / tissue radioactivity, Muscle / tissue radioactivity, S. Intestine / tissue radioactivity, Spleen / tissue radioactivity, Stomach: normal ICR mice, tail-vein injection
Method: Purified [^18F]CB251 was reconstituted in a 10% ethanol-saline solution. Animals were killed at various times after tail-vein injection of [^18F]CB251 (0.74 MBq/0.2 mL per mouse) and the radioactivity concentrations were measured in various tissues upon dissection. […] The radioactivity concentration in the femur remained low for 120 min (1.19 ± 0.50%ID/g at 5 min post injection; 1.49 ± 0.80%ID/g at 120 min post injection).
Tissue distribution studies were performed in normal male ICR mice (7 weeks, 25-30 g) with tail-vein administration of [^18F]CB251 (0.74 MBq/mouse) dissolved in 10% ethanol in saline to a final volume of 200 μL. The animals (n = 5 for each time point) were euthanised with diethyl ether at 5, 15, 30, 60 and 120 min post injection. After the mice were euthanised, blood and other organs such as the heart, liver, lung, stomach, spleen, kidney, intestine, muscle, brain, adrenal and femur were removed, weighed and counted for radioactivity in a NaI (Tl) well counter (Wizard^TM3”, PerkinElmer). The injected dose was calculated from standards prepared from the injection solution. The accumulated radioactivity of all tissues is presented as the percentage of the injected dose per gram of tissue (%ID/g). All animal studies were performed with the approval of the Institutional Animal Care and Use Committee of the Seoul National University Bundang Hospital (SNUBH) and the methods were carried out in accordance with the approved guidelines.

## CCCN(CCC)C(=O)Cc1c(-c2ccc(OCC[18F])cc2)nc2c(Cl)cc(Cl)cn12 [[^18F]CB251, 2-(2-(4-(2-[^18F]fluoroethoxy)phenyl)-6,8-dichloroimidazo[1,2-a]pyridin-3-yl)-N,N-dipropylacetamide]
Healthy mice, summary bound in text, indicates negligible defluorination
  uptake of radioactivity in the femur: < 2 %ID/g
male, ICR, mouse, in vivo
  uptake in TSPO-enriched tissues: > 22 %ID/g
5 min post injection
  tissue radioactivity, Adrenal: 19.06 ± 5.48 %ID/g
  tissue radioactivity, Blood: 4.39 ± 0.78 %ID/g
  tissue radioactivity, Brain: 2.89 ± 0.23 %ID/g
  tissue radioactivity, Femur: 1.19 ± 0.50 %ID/g
  tissue radioactivity, Heart: 29.49 ± 2.36 %ID/g
  tissue radioactivity, Kidney: 22.17 ± 1.63 %ID/g
  tissue radioactivity, L. Intestine: 1.54 ± 0.19 %ID/g
  tissue radioactivity, Liver: 4.69 ± 0.66 %ID/g
  tissue radioactivity, Lung: 106.4 ± 8.61 %ID/g
  tissue radioactivity, Muscle: 0.83 ± 0.34 %ID/g
  tissue radioactivity, S. Intestine: 3.30 ± 0.73 %ID/g
  tissue radioactivity, Spleen: 17.63 ± 3.38 %ID/g
  tissue radioactivity, Stomach: 1.86 ± 0.48 %ID/g
15 min post injection
  tissue radioactivity, Adrenal: 22.60 ± 5.00 %ID/g
  tissue radioactivity, Blood: 2.17 ± 0.40 %ID/g
  tissue radioactivity, Brain: 1.94 ± 0.24 %ID/g
  tissue radioactivity, Femur: 1.25 ± 0.41 %ID/g
  tissue radioactivity, Heart: 24.16 ± 4.67 %ID/g
  tissue radioactivity, Kidney: 24.55 ± 5.11 %ID/g
  tissue radioactivity, L. Intestine: 1.53 ± 0.13 %ID/g
  tissue radioactivity, Liver: 6.67 ± 1.10 %ID/g
  tissue radioactivity, Lung: 65.70 ± 11.3 %ID/g
  tissue radioactivity, Muscle: 1.19 ± 0.22 %ID/g
  tissue radioactivity, S. Intestine: 4.54 ± 0.60 %ID/g
  tissue radioactivity, Spleen: 25.11 ± 2.16 %ID/g
  tissue radioactivity, Stomach: 2.13 ± 0.77 %ID/g
30 min post injection
  tissue radioactivity, Adrenal: 19.73 ± 3.42 %ID/g
  tissue radioactivity, Blood: 1.24 ± 0.26 %ID/g
  tissue radioactivity, Brain: 1.39 ± 0.13 %ID/g
  tissue radioactivity, Femur: 1.94 ± 0.36 %ID/g
  tissue radioactivity, Heart: 23.11 ± 5.16 %ID/g
  tissue radioactivity, Kidney: 23.19 ± 5.68 %ID/g
  tissue radioactivity, L. Intestine: 1.69 ± 0.21 %ID/g
  tissue radioactivity, Liver: 8.19 ± 1.59 %ID/g
  tissue radioactivity, Lung: 38.36 ± 3.97 %ID/g
  tissue radioactivity, Muscle: 2.01 ± 0.34 %ID/g
  tissue radioactivity, S. Intestine: 4.43 ± 0.90 %ID/g
  tissue radioactivity, Spleen: 23.27 ± 3.52 %ID/g
  tissue radioactivity, Stomach: 1.84 ± 0.49 %ID/g
60 min post injection
  tissue radioactivity, Adrenal: 12.69 ± 5.62 %ID/g
  tissue radioactivity, Blood: 0.60 ± 0.12 %ID/g
  tissue radioactivity, Brain: 0.63 ± 0.24 %ID/g
  tissue radioactivity, Femur: 1.41 ± 0.64 %ID/g
  tissue radioactivity, Heart: 10.47 ± 4.50 %ID/g
  tissue radioactivity, Kidney: 14.55 ± 5.74 %ID/g
  tissue radioactivity, L. Intestine: 1.37 ± 0.56 %ID/g
  tissue radioactivity, Liver: 6.80 ± 2.64 %ID/g
  tissue radioactivity, Lung: 17.69 ± 5.77 %ID/g
  tissue radioactivity, Muscle: 1.52 ± 0.59 %ID/g
  tissue radioactivity, S. Intestine: 3.43 ± 1.35 %ID/g
  tissue radioactivity, Spleen: 14.24 ± 4.47 %ID/g
  tissue radioactivity, Stomach: 0.98 ± 0.41 %ID/g
120 min post injection
  tissue radioactivity, Adrenal: 14.78 ± 8.26 %ID/g
  tissue radioactivity, Blood: 0.64 ± 0.26 %ID/g
  tissue radioactivity, Brain: 0.53 ± 0.23 %ID/g
  tissue radioactivity, Femur: 1.49 ± 0.80 %ID/g
  tissue radioactivity, Heart: 8.62 ± 4.57 %ID/g
  tissue radioactivity, Kidney: 15.60 ± 8.55 %ID/g
  tissue radioactivity, L. Intestine: 2.09 ± 1.07 %ID/g
  tissue radioactivity, Liver: 7.17 ± 2.99 %ID/g
  tissue radioactivity, Lung: 13.22 ± 6.10 %ID/g
  tissue radioactivity, Muscle: 1.45 ± 0.65 %ID/g
  tissue radioactivity, S. Intestine: 3.78 ± 1.96 %ID/g
  tissue radioactivity, Spleen: 13.82 ± 5.17 %ID/g
  tissue radioactivity, Stomach: 1.97 ± 0.95 %ID/g
